Measured values as given in BindingDB's records for doi:10.1016/s0960-894x(98)00116-4 (University of Waterloo, 1999).
*1 amine or outer side, *2 acyl side, *3 side chain or, on linkers, in order; H or OH if unused. Where a SMILES comes first, the peptide text is derived from it. The star is where a group is joined. γGlu = O=C(O)[CH](CCC(=O)[*:2])N[*:1]; NHOH = ON*

Experiments:
[1] = target: Lactoylglutathione lyase (Saccharomyces cerevisiae); assay: Compound was evaluated for inhibition of Saccharomyces cerevisiae glyoxalase-I by using enzymatic assay at each of 6 substrate concentrations between 0.1 mM and 2.0 mM
[2] = target: Lactoylglutathione lyase (Saccharomyces cerevisiae); assay: Compound was evaluated for inhibition of Saccharomyces cerevisiae glyoxalase-I, activity is determined with 0.5 mM substrate

Ki [1]	IC50 [2]	Structure (SMILES)
1.9 µM		CN(O)C(=O)CCC(NC(=O)CCC(N)C(=O)O)C(=O)NCC(=O)O (stereo not drawn) [2-Amino-4-[1-(carboxymethyl-carbamoyl)-3-(hydroxy-methyl-carbamoyl)-propylcarbamoyl]-butyric acid anion]
92.9 µM		NC(CCC(=O)NC(CCC(=O)NO)C(=O)NCC(=O)O)C(=O)O (stereo not drawn) [2-Amino-4-[1-(carboxymethyl-carbamoyl)-3-hydroxycarbamoyl-propylcarbamoyl]-butyric acid anion] (γGlu-Glu(NHOH)-Gly-OH; configuration not given here)
	1620 µM	CCOC(=O)CNC(=O)C(CCC(=O)NO)NC(=O)CCC(N)C(=O)O (stereo not drawn) [2-Amino-4-[1-(ethoxycarbonylmethyl-carbamoyl)-3-hydroxycarbamoyl-propylcarbamoyl]-butyric acid anion] (γGlu-Glu(NHOH)-Gly-OEt; configuration not given here)
